Assay results published in patent publication US20120196918A1, “PREVENTING ISLET INFLAMMATION AND DYSFUNCTION AND MAINTAINING PROPER GLUCOSE LEVELS BY CONTROLLING eIF5A AND ITS HYPUSINATION” (priority 2009, published 2012).

Experiments:
[1] = system: STZ-treated C57BL/6J mice; assay: Multiple low-dose streptozotocin (STZ) diabetes model in C57BL/6J mice; type: in vivo, mouse
Experimental: To test the role of eIF5A in cytokine-mediated islet dysfunction, efforts were made to identify a mouse model of islet inflammation. The multiple low dose streptozotocin (STZ) model, in which mice are subjected to five daily intraperitoneal doses (at 55 mg/kg body weight) of STZ, is considered to provoke local islet inflammation and cytokine release, in part through the recruitment of CD11c+ dendritic cells that release pro-inflammatory cytokines in the area of STZ-induced cellular destruction (27 and 28).
C57BL/6J mice were injected intraperitoneally with either stabilized siRNA against eIF5A (si-eIF5A) or control siRNA (si-Control) daily for three days, then subjected to the multiple low-dose STZ protocol (see schematic in FIG. 1a). […] The effect of administering si-eIF5A on islet viability following STZ treatment was determined by performing immunohistochemical analysis of the pancreata of mice. […] To quantify the differences in islet mass between STZ-treated and untreated animals, morphometry of insulin-stained pancreatic sections was performed.
Based on the observed data, if hypusination of eIF5A by DHS is required for cytokine responsiveness in islets, then inhibition of DHS in vivo should protect against low dose STZ diabetes. To test this, C57BL/6J mice were treated with GC7 or vehicle and then subjected to low dose STZ injections. GC7 was delivered in one of two different ways: either by daily bolus intraperitoneal injections (4 mg/kg/day) or by continuous subcutaneous delivery (40 μg/kg/h) using implanted osmotic pumps. A protocol similar to that shown in FIG. 1A was employed in these studies, with GC7 injections or pump implants starting 3 days prior to STZ injections.
Small interfering RNA (siRNA) studies: Stabilized siRNAs for intraperitoneal injections were custom synthesized by Dharmacon using the siSTABLE® modification. Groups of 10 week-old C57BL/6J male mice (from Jackson Labs) received daily intraperitoneal injections of 1.6 mg/kg siRNA prepared in 0.9% saline or vehicle alone (0.9% saline) for 3 days. For in vitro studies, islets from each group of injected mice were harvested on the fourth day and pooled prior to analysis. Injections with each siRNA were performed on at least 3 different occasions. siRNA sequences were as follows: siControl, 5′-[…]-3′; si-eIF5A, 5′-[…]-3′. For siRNA studies in the rat β cell-derived line INS-1 (832/13), cells were transfected with a SMART Pool® siRNA against rat eIF5A1 (Dharmacon, #L-083855-01) or non-targeting control siRNA #1 (Dharmacon) using DharmaFECT® transfection reagent (Dharmacon).
Immunostaining and morphometric assessment of β cell mass: Immunostaining of pancreatic sections proceeded as described previously (72). For assessment of islet cell death in pancreatic sections, the technique of terminal deoxynucleotidyl transferase dUTP nick end labeling (TUNEL) was performed using biotinylated 16-dUTP (Roche) and Texas Red Neutravidin (Invitrogen). Digital images of each islet at 40× magnification were acquired using an Axio-Observer D1 microscope (Zeiss) inverted fluorescent microscope equipped with a high-resolution color camera. TUNEL-positive/insulin-positive nuclei were counted manually by an observer blinded to sample identity, and data were re-coded as the average number of TUNEL-positive nuclei per islet. β cell mass was calculated as described previously (73), but with some modifications. Briefly, pancreata from 3 mice per treatment group were rapidly dissected and weighed, fixed in 4% paraformaldehyde, paraffin-embedded, and longitudinally sectioned. Three sections/pancreas (approx. 75 μm apart) were subsequently immunostained for insulin and counterstained with hematoxylin as described (74), and digital images of each section at 10× magnification were acquired on an Axio-Observer Z1 microscope (Zeiss) fitted with an AxioCam high resolution color camera. […]

[2] = system: eIF5A; assay: eIF5A nuclear-to-cytoplasmic translocation in INS-1 cells (immunofluorescence); type: cell-based, rat; conditions: pretreatment, then cytokines 4 h
Experimental: Given the striking retention of Nos2 transcripts in the absence of eIF5A-Hyp, it was of interest to determine whether the intracellular distribution of eIF5A accounts for its effect on Nos2 nucleo-cytoplasmic shuttling. Immunofluorescence of eIF5A in fixed INS-1 cells, were thus performed. […] Upon treatment of cells with cytokines, there was a shift in the eIF5A distribution pattern from the nucleus to the cytoplasm.
Cytokine and inhibitor incubation studies: For cytokine incubation assays, a 1000× cocktail of cytokines containing 5 μg/ml IL1β, 10 μg/ml TNFα, and 100 μg/ml IFNγ (all prepared in 0.1% BSA in Tris-buffered saline) was applied at 1× final concentration to groups of 50 islets or 1×10^6 INS-1 (832/13) cells for a total of 4 h at 37° C. For GC7 incubation studies, GC7 was prepared at a stock concentration of 125 mM in 10 mM acetic acid and applied to cultures of 50 islets or 1×10^6 INS-1 cells to obtain the final concentrations indicted in the figures. […]
Immunofluorescence: Immunofluorescence of INS-1 cells proceeded essentially as described previously (71), using primary antibodies to eIF5A1 and secondary anti-mouse Alexa-488-conjugated antibody (Invitrogen), or by direct visualization of GFP fusion proteins at 488 nm. […] Quantitation of cytoplasic-to-nuclear ratios of eIF5A staining was performed using Axio-Vision Software, v. […]

| Compound | average fasting blood glucose ([1]; siRNA 1.6 mg/kg i.p. daily for 3 days, then multiple low-dose STZ, day 7) [mg/dL] | immunohistochemical staining for iNOS in islets ([1]; siRNA i.p., STZ, end of the study) | islet number and insulin staining of pancreata (immunohistochemistry) ([1]; siRNA i.p., multiple low-dose STZ) | glucose tolerance in IPGTT ([1]; siRNA i.p., multiple low-dose STZ, compared to si-Control-injected mice) | reduction of β cell mass compared to non-STZ-treated controls ([1]; siRNA i.p., multiple low-dose STZ, morphometry of insulin-stained sections) [fold] | iNOS induction in islets by immunoblot ([1]; siRNA i.p., 24 h after the first STZ treatment) | cytokine-induced translocation of eIF5A [2] | STZ-induced glucose intolerance (GTT), osmotic pump GC7 ([1]; GC7 40 μg/kg/h continuous s.c. osmotic pump, started 3 days before STZ) | STZ-induced glucose intolerance (GTT), intraperitoneal GC7 ([1]; GC7 4 mg/kg/day i.p. bolus, started 3 days before STZ) | β cell mass (histomorphometry) ([1]; GC7-injected animals, STZ) | iNOS production in islets ([1]; GC7-treated pump animals, STZ) | TUNEL+ cells per islet ([1]; GC7 plus STZ, STZ alone 0.78) | serum IL-6 levels ([1]; concurrent treatment with STZ) | insulin secretion at 0 and 30 min during glucose challenge ([1]; pump-implanted animals, STZ) |
| --- | --- | --- | --- | --- | --- | --- | --- | --- | --- | --- | --- | --- | --- | --- |
| 5′-AACGGAAUGACUUCCAGCUGA-3′ (siSTABLE modification, further chemistry not given here) [si-eIF5A] | 101 | undetectable | relatively preserved islet number and insulin granularity | improved glucose tolerance | 1.4 | attenuated |  |  |  |  |  |  |  |  |
| NCCCCCCCN=C(N)N [GC7] |  |  |  |  |  |  | failed to induce the nuclear to cytoplasmic translocation of eIF5A | near-complete protection | near-complete protection | full preservation of mass | suppression of iNOS production | 0.42 | did not affect IL-6 levels | normal insulin secretory response |
